What is called IC50 is the concentration at which inhibition is half-maximal.

Molecules are shown by their SMILES.

These results are taken from patent US20160376240A1, “6 Phenyl or 6 Pyridin 3 YL Indazole Derivatives and Methods of Use” (ABBVIE INC., priority 2014, published 2016).

T1 sequence (P04629 33-796): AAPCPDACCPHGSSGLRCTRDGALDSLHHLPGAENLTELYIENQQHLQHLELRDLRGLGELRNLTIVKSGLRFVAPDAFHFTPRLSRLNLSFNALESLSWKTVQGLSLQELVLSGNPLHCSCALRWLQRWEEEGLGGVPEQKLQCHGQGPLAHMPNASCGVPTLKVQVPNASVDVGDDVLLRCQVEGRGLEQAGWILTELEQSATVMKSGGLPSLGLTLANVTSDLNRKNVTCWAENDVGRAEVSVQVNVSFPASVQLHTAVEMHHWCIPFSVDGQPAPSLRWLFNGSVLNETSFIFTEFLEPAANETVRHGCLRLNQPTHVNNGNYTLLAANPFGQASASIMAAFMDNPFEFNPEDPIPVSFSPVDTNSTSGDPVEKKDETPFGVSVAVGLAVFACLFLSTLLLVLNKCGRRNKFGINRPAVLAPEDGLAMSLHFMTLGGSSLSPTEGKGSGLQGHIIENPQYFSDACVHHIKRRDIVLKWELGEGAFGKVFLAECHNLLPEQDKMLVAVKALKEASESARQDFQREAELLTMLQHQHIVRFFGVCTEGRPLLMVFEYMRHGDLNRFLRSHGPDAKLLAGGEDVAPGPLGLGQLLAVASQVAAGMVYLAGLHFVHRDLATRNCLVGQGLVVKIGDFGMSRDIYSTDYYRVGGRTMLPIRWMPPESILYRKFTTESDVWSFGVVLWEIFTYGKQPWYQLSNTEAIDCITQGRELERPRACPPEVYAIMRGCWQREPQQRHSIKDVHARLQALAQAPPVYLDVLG

The experiment has as its target T1, TrkA (Homo sapiens, UniProt P04629).
T1 construct: purchased Invitrogen PV3144
The experiment can be described thus: TrkA kinase inhibition, HTRF assay. The class given is biochemical. Particulars: LCK peptide substrate 125 nM, TrkA 2-10 nM pre-incubated with ATP 200 μM. The procedure: TrkA, TrkB, and TrkC enzymes were obtained from Invitrogen (as catalog numbers PV3144, PV3616, and PV3617, respectively). The ability of a compound to inhibit the enzymatic activity of the TrkA, TrkB, and TrkC enzymes was determined in separate assays. Enzyme activity was measured in an HTRF® (homogeneous time resolved fluorescence) assay, which detects enzymatic phosphorylation of a biotinylated synthetic peptide substrate (an LCK peptide analog, biotin-ahx-GAEEEIYAAFFA, from Genemed Synthesis). Phosphorylation is assessed by HTRF® in the presence of an anti-phosphotyrosine antibody conjugated to Eu^3+ cryptate (Cisbio) as donor fluorophore, and streptavidin conjugated to allophycocyanin (ProZyme) as acceptor fluorophore. The HTRF® signal was detected at two different wavelengths (620 nm and 665 nm) which were used to calculate the fluorescence ratio.
Each enzyme was titrated to a concentration optimized to ensure accurate measurement of the initial reaction rate. To allow the Trk enzymes to undergo activation and auto-phosphorylation, a 20 minute pre-incubation with ATP was carried out (at twice the final targeted enzyme and ATP concentration) prior to addition of test compound and the peptide substrate.
TrkA in vitro assays were performed by pre-incubating TrkA (2-10 nM) with ATP (200 μM) for 20 minutes at ambient temperature in 50 mM HEPES pH 7.4, 10 mM MgCl2, 2 mM MnCl2, 100 μM Na3VO4, 1 mM dithiothreitol, 0.01% BSA (bovine serum albumin). Then, to the activated Trk enzyme mixture was added the test compound in 2% dimethyl sulfoxide. After 10 minutes, the peptide substrate (125 nM) was added. After 1 hour, enzyme reactions were terminated by addition of equal reaction volumes of detection/stop reagent (containing 0.2 μg/mL anti-phosphotyrosine monoclonal antibody labeled with europium from Cisbio (catalog# PT66-K), and 4 μg/mL PhycoLink® Streptavidin-Allophycocyanin conjugate from ProZyme (catalog# PJ25S) in 60 mM EDTA in 40 mM HEPES pH 7.4, 480 mM KF, 0.01% Tween® 20 and 0.1% BSA bovine serum albumin) Reaction plates were stored at 4° C. overnight before reading the fluorescence ratio signal on a PerkinElmer EnVision™ fluorescence detector. Individual reaction wells were stopped at time points to obtain reaction rates. The test inhibitor compounds were assayed in duplicate, at half-log serial dilutions over a range of concentrations (e.g. starting at 50 μM or 5 μM as the high compound concentration). The percent Trk enzyme inhibition was calculated from the initial rates of the inhibited reactions relative to the uninhibited control. IC50 values were calculated by fitting the inhibition percent to the concentration of inhibitor [I] in the assay in equation 1 below, to solve for the IC50.
Inhibition %=100[I]/([I]+[IC50]) equation 1
Consider `CNC(=O)c1ccc(-c2cc(OC3CCOCC3)c3c(N)n[nH]c3c2)cc1N1CCN(C(=O)C2CC2)CC1` [Example 32, 4-[3-amino-4-(tetrahydro-2H-pyran-4-yloxy)-1H-indazol-6-yl]-2-[4-(cyclopropylcarbonyl)piperazin-1-yl]-N-methylbenzamide], for which the IC50 worked out at 376 nM.
Turning to `CNC(=O)c1ccc(-c2cc(OC(C)C(F)(F)F)c3c(N)n[nH]c3c2)cc1N1CCN(c2ccccc2)CC1` (centres unmarked) [Example 33, 4-{3-amino-4-[(1,1,1-trifluoropropan-2-yl)oxy]-1H-indazol-6-yl}-N-methyl-2-(4-phenylpiperazin-1-yl)benzamide], the midpoint of inhibition, the IC50, lay at 28 nM.
Under `CNC(=O)c1ccc(-c2cc(OC(C)C(F)(F)F)c3c(N)n[nH]c3c2)cc1N1CCN(c2cccnc2)CC1` (centres unmarked) [Example 36, 4-{3-amino-4-[(1,1,1-trifluoropropan-2-yl)oxy]-1H-indazol-6-yl}-N-methyl-2-[4-(pyridin-3-yl)piperazin-1-yl]benzamide] stands 25.8 nM; under `CNC(=O)c1ccc(-c2cc(OC(C)C(F)(F)F)c3c(N)n[nH]c3c2)cc1N1CCN(CCN2CCOCC2)CC1` (centres unmarked) [Example 37, 4-{3-amino-4-[(1,1,1-trifluoropropan-2-yl)oxy]-1H-indazol-6-yl}-N-methyl-2-{4-[2-(morpholin-4-yl)ethyl]piperazin-1-yl}benzamide], 667 nM.
In the case of `CNC(=O)c1ccc(-c2cc(OC(C)C(F)(F)F)c3c(N)n[nH]c3c2)cc1N1CCN(c2cnccn2)CC1` (centres unmarked) [Example 38, 4-{3-amino-4-[(1,1,1-trifluoropropan-2-yl)oxy]-1H-indazol-6-yl}-N-methyl-2-[4-(pyrazin-2-yl)piperazin-1-yl]benzamide] it was 31.2 nM; in that of `CNC(=O)c1ccc(-c2cc(O[C@@H](C)C(F)(F)F)c3c(N)n[nH]c3c2)cc1N1CCN(c2ccccc2)CC1` [Example 39, 4-(3-amino-4-{[(2S)-1,1,1-trifluoropropan-2-yl]oxy}-1H-indazol-6-yl)-N-methyl-2-(4-phenylpiperazin-1-yl)benzamide], 41.7 nM; in that of `CNC(=O)c1ccc(-c2cc(O[C@@H](C)C(F)(F)F)c3c(N)n[nH]c3c2)cc1N1CCN(CCC(C)(C)C)CC1` [Example 40, 4-(3-amino-4-{[(2S)-1,1,1-trifluoropropan-2-yl]oxy}-1H-indazol-6-yl)-2-[4-(3,3-dimethylbutyl)piperazin-1-yl]-N-methylbenzamide], 71.4 nM.
In the case of `CNC(=O)c1ccc(-c2cc(O[C@@H](C)C(F)(F)F)c3c(N)n[nH]c3c2)cc1N1CCN(c2cccnc2)CC1` [Example 41, 4-(3-amino-4-{[(2S)-1,1,1-trifluoropropan-2-yl]oxy}-1H-indazol-6-yl)-N-methyl-2-[4-(pyridin-3-yl)piperazin-1-yl]benzamide] it was 29.2 nM.
For `CNC(=O)c1ccc(-c2cc(O[C@@H](C)C(F)(F)F)c3c(N)n[nH]c3c2)cc1N1CCN(C2CCC2)CC1` [Example 42, 4-(3-amino-4-{[(2S)-1,1,1-trifluoropropan-2-yl]oxy}-1H-indazol-6-yl)-2-(4-cyclobutylpiperazin-1-yl)-N-methylbenzamide], the IC50 amounted to 422 nM.
In the case of `CNC(=O)c1ccc(-c2cc(O[C@@H](C)C(F)(F)F)c3c(N)n[nH]c3c2)cc1N1CCN(c2ncccn2)CC1` [Example 43, 4-(3-amino-4-{[(2S)-1,1,1-trifluoropropan-2-yl]oxy}-1H-indazol-6-yl)-N-methyl-2-[4-(pyrimidin-2-yl)piperazin-1-yl]benzamide] it was 63.1 nM; in that of `CNC(=O)c1ccc(-c2cc(O[C@@H](C)C(F)(F)F)c3c(N)n[nH]c3c2)cc1N1CCN(C2CCCC2)CC1` [Example 44, 4-(3-amino-4-{[(2S)-1,1,1-trifluoropropan-2-yl]oxy}-1H-indazol-6-yl)-2-(4-cyclopentylpiperazin-1-yl)-N-methylbenzamide], 25.3 nM; in that of `CNC(=O)c1ccc(-c2cc(O[C@@H](C)C(F)(F)F)c3c(N)n[nH]c3c2)cc1N1CCN(C(=O)C(C)(C)C)CC1` [Example 45, 4-(3-amino-4-{[(2S)-1,1,1-trifluoropropan-2-yl]oxy}-1H-indazol-6-yl)-2-[4-(2,2-dimethylpropanoyl)piperazin-1-yl]-N-methylbenzamide], 300 nM.
In turn, `CNC(=O)c1ccc(-c2cc(O[C@@H](C)C(F)(F)F)c3c(N)n[nH]c3c2)cc1N1CCN(c2cnccn2)CC1` [Example 46, 4-(3-amino-4-{[(2S)-1,1,1-trifluoropropan-2-yl]oxy}-1H-indazol-6-yl)-N-methyl-2-[4-(pyrazin-2-yl)piperazin-1-yl]benzamide] registered an IC50 of 32.5 nM.
In the case of `CNC(=O)c1ccc(-c2cc(O[C@H](C)C(F)(F)F)c3c(N)n[nH]c3c2)cc1N1CCN(c2ccccc2)CC1` [Example 48, 4-(3-amino-4-{[(2R)-1,1,1-trifluoropropan-2-yl]oxy}-1H-indazol-6-yl)-N-methyl-2-(4-phenylpiperazin-1-yl)benzamide] it was 38.5 nM.
In the case of `CNC(=O)c1ccc(-c2cc(O[C@H](C)C(F)(F)F)c3c(N)n[nH]c3c2)cc1N1CCN(c2cccnc2)CC1` [Example 49, 4-(3-amino-4-{[(2R)-1,1,1-trifluoropropan-2-yl]oxy}-1H-indazol-6-yl)-N-methyl-2-[4-(pyridin-3-yl)piperazin-1-yl]benzamide] it was 141 nM.
In the case of `CNC(=O)c1ccc(-c2cc(O[C@H](C)C(F)(F)F)c3c(N)n[nH]c3c2)cc1N1CCN(C2CCC2)CC1` [Example 50, 4-(3-amino-4-{[(2R)-1,1,1-trifluoropropan-2-yl]oxy}-1H-indazol-6-yl)-2-(4-cyclobutylpiperazin-1-yl)-N-methylbenzamide] it was 530 nM.
`CNC(=O)c1ccc(-c2cc(O[C@H](C)C(F)(F)F)c3c(N)n[nH]c3c2)cc1N1CCN(CCC(C)(C)C)CC1` [Example 51, 4-(3-amino-4-{[(2R)-1,1,1-trifluoropropan-2-yl]oxy}-1H-indazol-6-yl)-2-[4-(3,3-dimethylbutyl)piperazin-1-yl]-N-methylbenzamide] yielded an IC50 of 75.4 nM.
`CNC(=O)c1ccc(-c2cc(O[C@H](C)C(F)(F)F)c3c(N)n[nH]c3c2)cc1N1CCN(c2ncccn2)CC1` [Example 52, 4-(3-amino-4-{[(2R)-1,1,1-trifluoropropan-2-yl]oxy}-1H-indazol-6-yl)-N-methyl-2-[4-(pyrimidin-2-yl)piperazin-1-yl]benzamide]: the half-maximal inhibitory concentration (IC50) worked out at 27.2 nM.
Under `CNC(=O)c1ccc(-c2cc(O[C@H](C)C(F)(F)F)c3c(N)n[nH]c3c2)cc1N1CCN(C2CCCC2)CC1` [Example 53, 4-(3-amino-4-{[(2R)-1,1,1-trifluoropropan-2-yl]oxy}-1H-indazol-6-yl)-2-(4-cyclopentylpiperazin-1-yl)-N-methylbenzamide] stands 44.4 nM; under `CNC(=O)c1ccc(-c2cc(O[C@H](C)C(F)(F)F)c3c(N)n[nH]c3c2)cc1N1CCN(C(=O)C(C)(C)C)CC1` [Example 54, 4-(3-amino-4-{[(2R)-1,1,1-trifluoropropan-2-yl]oxy}-1H-indazol-6-yl)-2-[4-(2,2-dimethylpropanoyl)piperazin-1-yl]-N-methylbenzamide], 101 nM; under `CNC(=O)c1ccc(-c2cc(O[C@H](C)C(F)(F)F)c3c(N)n[nH]c3c2)cc1N1CCN(c2cnccn2)CC1` [Example 55, 4-(3-amino-4-{[(2R)-1,1,1-trifluoropropan-2-yl]oxy}-1H-indazol-6-yl)-N-methyl-2-[4-(pyrazin-2-yl)piperazin-1-yl]benzamide], 121 nM.
In the case of `CNC(=O)c1ccc(-c2cc(O[C@H](C)C(F)(F)F)c3c(N)n[nH]c3c2)cc1N1CCN2CCCCC2C1` (stereo partly drawn) [Example 57, 4-(3-amino-4-{[(2R)-1,1,1-trifluoropropan-2-yl]oxy}-1H-indazol-6-yl)-N-methyl-2-(octahydro-2H-pyrido[1,2-a]pyrazin-2-yl)benzamide] it was 6320 nM.
In the case of `CNC(=O)c1ccc(-c2cc(O[C@H](C)C(F)(F)F)c3c(N)n[nH]c3c2)cc1N1CCOC(CC(C)C)C1` (stereo partly drawn) [Example 58, 4-(3-amino-4-{[(2R)-1,1,1-trifluoropropan-2-yl]oxy}-1H-indazol-6-yl)-2-(2-isobutylmorpholin-4-yl)-N-methylbenzamide] it was 673 nM.
